Test results reported in patent publication US10017546B2 (KOREA ADVANCED INSTITUTE OF SCIENCE AND TECHNOLOGY, priority 2015, dated 2018).
Like-named read-outs stand apart in the source and are kept apart here.

How the values were obtained:
[1] = target: Rhizobium etli rhizavidin variant RAWH (RAWH-His6), E115W/S23H (Rhizobium etli, UniProt Q8KKW2, E135W/S43H); assay: Kd measurement by competition binding for [^3H]biotin against streptavidin, RAWH
Protocol: (§1) Mixtures were incubated at 37° C. for 20 h to reach equilibration. […] After 1 h incubation at room temperature, the beads were cleared by centrifugation at 13,000 rpm for 1 min. […] Samples were heated to 95° C. for 30 min, and then counted in a liquid scintillation counter. The Kd ratios between competing avidin proteins were calculated with Matlab (Mathworks) using the foregoing formula (Qureshi, M. H. & Wong, S. L. Protein Expr. Purif. 25, 409-415 (2002)).

[2] = target: Rhizobium etli rhizavidin variant monodin (MA), monomeric, A67D/G71K/A82N/G84Q/S101R/A105K + S23H/Q46E/E115W, SEQ ID NO: 3 (Rhizobium etli, UniProt Q8KKW2, A102N/A125K/A87D/E135W/G104Q/G91K/Q66E/S121R/S43H); assay: [^3H]biotin off-rate assay, monodin; assay type: binding; settings: free [^3H]biotin, excess cold biotin, 37° C.
Sequence of Rhizobium etli rhizavidin variant monodin (MA), monomeric, A67D/G71K/A82N/G84Q/S101R/A105K + S23H/Q46E/E115W, SEQ ID NO: 3 (Q8KKW2 entry or part of it S43H/Q66E/A87D/G91K/A102N/G104Q/S121R/A125K/E135W): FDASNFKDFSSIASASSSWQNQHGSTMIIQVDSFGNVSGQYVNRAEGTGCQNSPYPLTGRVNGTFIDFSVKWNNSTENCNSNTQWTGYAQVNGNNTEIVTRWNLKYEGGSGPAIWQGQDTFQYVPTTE
Protocol: [^3H]Biotin Off-Rate Assay
At time-points taken over 5 h at 37° C., 150 μL of aliquots were removed, and added to 600 μL of 0.2 M ZnSO4 (chilled with ice), followed by addition of 600 μL of 0.2 M NaOH. […] Dissociation rates were deduced as discussed above.

[3] = target: Rhizobium etli rhizavidin variant monodin (MA, MA-His6), monomeric, A67D/G71K/A82N/G84Q/S101R/A105K + S23H/Q46E/E115W, SEQ ID NO: 3 (Rhizobium etli, UniProt Q8KKW2, A102N/A125K/A87D/E135W/G104Q/G91K/Q66E/S121R/S43H); assay: Kd measurement by competition binding for [^3H]biotin against RAWH, monodin
Sequence of Rhizobium etli rhizavidin variant monodin (MA, MA-His6), monomeric, A67D/G71K/A82N/G84Q/S101R/A105K + S23H/Q46E/E115W, SEQ ID NO: 3 (Q8KKW2 entry or part of it S43H/Q66E/A87D/G91K/A102N/G104Q/S121R/A125K/E135W): as above
Protocol: as §1

biotin-GFP = biotin-GFP (Aequorea victoria, UniProt P42212, A206V/E111V/F223Y/F64L/F99S/I128T/I167V/I171V/K158E/K166T/K26E/L221H/M153T/N105K/N149D/N164E/Q80R/S205T/S30R/S65T/T225N/V163A/Y145F/Y39I); settings: Biotin-GFP
Protocol: After incubation at the indicated temperature (23° C., 37° C., or 45° C.) for varying time points (between 0 to 10 h), protein-conjugate mixtures were loaded onto a 15% native polyacrylamide gel. […] Data as ln(fraction bound) versus time and fitting the data to a straight line by linear regression.

biotin-DNA = assay: Gel-based off-rate measurement against biotin-DNA-fluorescein; assay type: binding; settings: 10 h
HeLa cells = assay: Clustering and internalization of biotinylated cell-surface proteins; assay type: cell-based; settings: Cy5-labeled avidin proteins, 37° C.
Protocol: Following biotinylation, the cells were washed twice with cold PBS-CM, treated with 100 mM glycine in PBS-CM for blocking, and washed again twice with cold PBS. […] Unbound avidin proteins were removed, and media was replaced with pre-warmed DMEM (37° C.). Cells were incubated for 5, 10, or 30 m at 37° C. Cells were washed, and fixed with 4% formaldehyde in PBS for confocal imaging (ZEISS, LSM510 META). To visualize endosome or lysozome-specific proteins, cells were fixed, permeabilized, and incubated with a primary antibody: anti-Rab11 (a GTPase of recycling endosome, Abcham) or anti-LAM P1 (Lysosomal-associated membrane protein 1, Abcham). Afterward, cells were incubated with a fluorescent secondary antibody (goat anti-rabbit 555, Abcham), and images were acquired with a confocal microscopy (ZEISS, LSM510 META).

Sequence of Rhizobium etli rhizavidin variant RAWH (RAWH-His6), E115W/S23H (Q8KKW2 entry or part of it S43H/E135W): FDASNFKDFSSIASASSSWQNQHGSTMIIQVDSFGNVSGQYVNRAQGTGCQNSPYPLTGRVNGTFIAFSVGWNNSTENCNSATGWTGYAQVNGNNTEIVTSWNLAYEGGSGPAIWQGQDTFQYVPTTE

Row | Molecule | percentage of dissociated biotin conjugate after 10 h incubation with excess biotin (biotin-GFP; 23° C.) [% for 10 h*] | percentage of dissociated biotin conjugate after 10 h incubation with excess biotin (biotin-GFP; 37° C.) [% for 10 h*] | percentage of dissociated biotin conjugate after 10 h incubation with excess biotin (biotin-DNA; 23° C.) [% for 10 h*] | percentage of dissociated biotin conjugate after 10 h incubation with excess biotin (biotin-DNA; 37° C.) [% for 10 h*] | also measured
1 | O=C(O)CCCC[C@@H]1SC[C@@H]2NC(=O)N[C@@H]21 [[^3H]biotin] [listing 1 of 2 here] |  |  |  |  | Kd [1]: 0.0069 nM
2 | O=C(O)CCCC[C@@H]1SC[C@@H]2NC(=O)N[C@@H]21 [[^3H]biotin] [listing 2 of 2 here] |  |  |  |  | off-rate [2]: 1.2±0.3×10^−5 s^−1
3 | O=C(O)CCCC[C@@H]1SC[C@@H]2NC(=O)N[C@@H]21 [biotin] |  |  |  |  | Kd [3]: 0.031 ± 0.01 nM
4 | Neutravidin (NA): tetrameric neutravidin (Pierce) [reference compound] | 6.8 ± 1.6 | 16 ± 3.8 | 11 ± 4.4 | 20 ± 0.2 | percentage of dissociated biotin conjugate after 10 h incubation with excess biotin (biotin-GFP; 45° C.): 32 ± 5.0% for 10 h*; percentage of dissociated biotin conjugate after 10 h incubation with excess biotin (biotin-DNA; 37° C., listed as neutravidin): about 20%
5 | Streptavidin (STA): tetrameric streptavidin, purchased from Abcam [reference compound] | 4.7 ± 0.3 | 22 ± 4.4 | 6.8 ± 1.8 | 17 ± 1 | Dissociation rate (biotin-GFP; 45° C., excess biotin): 1.9 ± 0.2 × 10^−5 s^−1; percentage of dissociated biotin conjugate after 10 h incubation with excess biotin (biotin-DNA; 37° C., listed as streptavidin): about 20%; incubation time after which avidin protein was internalized (HeLa cells): 10 min
